Key:
[1] = molecular target: Carbonic anhydrase 13 (Mus musculus) (UniProt Q9D6N1); assay: Inhibition of mouse recombinant full length carbonic hydrase 13 by stopped-flow CO2 hydration assay
[2] = molecular target: Carbonic anhydrase 3 (Homo sapiens) (UniProt P07451)
Chain of Carbonic anhydrase 3 (Homo sapiens) (P07451 whole entry): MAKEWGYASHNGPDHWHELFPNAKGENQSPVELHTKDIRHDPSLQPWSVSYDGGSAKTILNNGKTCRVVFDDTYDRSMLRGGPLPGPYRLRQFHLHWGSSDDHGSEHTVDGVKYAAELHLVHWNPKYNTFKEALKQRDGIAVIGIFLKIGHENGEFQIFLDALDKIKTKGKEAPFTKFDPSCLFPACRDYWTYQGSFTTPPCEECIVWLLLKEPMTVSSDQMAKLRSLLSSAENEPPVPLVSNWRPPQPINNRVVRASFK
Description: Inhibition of human recombinant full length carbonic hydrase 3 by stopped-flow CO2 hydration assay

Chain of Carbonic anhydrase 13 (Mus musculus) (Q9D6N1 whole entry, looked up): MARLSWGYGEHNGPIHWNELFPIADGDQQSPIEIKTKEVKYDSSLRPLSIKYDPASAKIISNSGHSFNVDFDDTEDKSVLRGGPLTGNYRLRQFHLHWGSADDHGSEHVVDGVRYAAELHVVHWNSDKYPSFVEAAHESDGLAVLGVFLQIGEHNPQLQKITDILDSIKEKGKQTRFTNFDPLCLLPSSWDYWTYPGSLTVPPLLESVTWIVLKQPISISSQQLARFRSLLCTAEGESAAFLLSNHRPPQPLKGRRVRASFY

Ki [1] | Kinact [2] | Compound
20 nM | 3.6 10^5nM | CN(C)c1nnc(CS(N)(=O)=O)s1
– | 7 10^5nM | CC(=O)/N=c1/sc(S(N)(=O)=O)nn1C

Reference: ChEMBL document CHEMBL1143129
